Test results: patent US5610003A, “Two-equivalent magenta photographic couplers with activity-modifying ballasting groups” (Eastman Kodak Company, priority 1995, dated 1997)

Key:
[1] = Taft steric parameter Es of sterically hindering group; assay type: physicochemical; design: key: Taft steric parameter Es, referenced to H = 0 (more negative = bulkier)
Excerpt: Y is a monovalent organic group which sterically hinders leuco dye formation. The sterically hindering group is characterizedby a negative Es value greater than the absolute value of -1.5 and more preferably greater than the absolute value of -2.0. The Es value refers to the Taft steric parameter, referenced to H=O and defined as: […]
where k refers to the rate constant for the acid hydrolysis of esters of the type X--CH2 COOR and 1.24 is the hydrolysis rate of formate. A detailed description of this parameter is provided by S. H. Unger and C. Hansch, Prog. Phys. Org. Chem., 12, 91 (1976).

[2] = π value of R^4 group; assay type: physicochemical; design: key: π from partition coefficients of derivative (Px) vs parent (PH); settings: substituent R^4
Method: R^4 is a monovalent organic group with a π value of at least 2.1. As used herein, the π value is determined by the equation: […]
where Px is the partition coefficient of a derivative and PH is the partition coefficient of the parent compound. A detailed description of the determination of the π value is provided by A. Leo, C. Hansch and D. Elkins, Chem. Rev., 71, 525 (1971).

| SMILES | Es Value for Sterically Hindering Group [1] | π Value for R^4 [2] |
| --- | --- | --- |
| CCCCCCC(Oc1ccc(C(C)(C)CC(C)(C)C)cc1C(C)(C)CC(C)(C)C)C(=O)NC1=NN(c2c(Cl)cc(Cl)cc2Cl)C(=O)C1n1cccn1 (stereo not drawn) [Example 1] | -2.6 | 3.2 |
| CCCCCCCCC(Oc1ccc(C(C)(C)CC(C)(C)C)cc1C(C)(C)CC(C)(C)C)C(=O)NC1=NN(c2c(Cl)cc(Cl)cc2Cl)C(=O)C1n1cccn1 (stereo not drawn) [Example 2] | -2.6 | 4.3 |
| CCCCCCCCCCCCC(Oc1ccc(C(C)(C)CC(C)(C)C)cc1C(C)(C)CC(C)(C)C)C(=O)NC1=NN(c2c(Cl)cc(Cl)cc2Cl)C(=O)C1n1cccn1 (stereo not drawn) [Example 3] | -2.6 | 6.5 |
| CCCCC(Oc1ccc(C(C)(C)CC)cc1C(C)(C)CC)C(=O)NC1=NN(c2c(Cl)cc(Cl)cc2Cl)C(=O)C1n1cccn1 (stereo not drawn) [Example 4] | -3.0 | 2.1 |
| CCCCCCC(Oc1ccc(C(C)(C)CC)cc1C(C)(C)CC)C(=O)NC1=NN(c2c(Cl)cc(Cl)cc2Cl)C(=O)C1n1cccn1 (stereo not drawn) [Example 5] | -3.0 | 3.2 |
| CCCCCCCCC(Oc1ccc(C(C)(C)CC)cc1C(C)(C)CC)C(=O)NC1=NN(c2c(Cl)cc(Cl)cc2Cl)C(=O)C1n1cccn1 (stereo not drawn) [Example 6] | -3.0 | 4.3 |
| CCCCCCCCCCCCC(Oc1ccc(C(C)(C)CC)cc1C(C)(C)CC)C(=O)NC1=NN(c2c(Cl)cc(Cl)cc2Cl)C(=O)C1n1cccn1 (stereo not drawn) [Example 7] | -3.0 | 6.5 |
| CCCCCCCCCCCCCCCCC(Oc1ccc(C(C)(C)CC)cc1C(C)(C)CC)C(=O)NC1=NN(c2c(Cl)cc(Cl)cc2Cl)C(=O)C1n1cccn1 (stereo not drawn) [Example 8] | -3.0 | 8.6 |
| CCCCCCC(Oc1cc2c(cc1C(C)(C)CC(C)(C)C)OC(C)(C)CC2(C)C)C(=O)NC1=NN(c2c(Cl)cc(Cl)cc2Cl)C(=O)C1n1cccn1 (stereo not drawn) [Example 9] | -2.6 | 4.3 |
| CCCCCCCCCCCCC(Oc1ccc(CCCCC)cc1CCCCC)C(=O)NC1=NN(c2c(Cl)cc(Cl)cc2Cl)C(=O)C1n1cccn1 (stereo not drawn) [Example 10] | -1.6 | 6.5 |
| CCCCCCCCCCCCC(Oc1cc(C(C)(C)C)cc(C(C)(C)C)c1)C(=O)NC1=NN(c2c(Cl)cc(Cl)cc2Cl)C(=O)C1n1cccn1 (stereo not drawn) [Example 11] | -2.8 | 6.5 |

Now from value to compound:

| Es Value for Sterically Hindering Group [1] | π Value for R^4 [2] | SMILES |
| --- | --- | --- |
| -3.0 |  | CCC(C)(C)c1ccc(Oc2ccc([N+](=O)[O-])cc2C(=O)NC2=NN(c3c(Cl)cc(Cl)cc3Cl)C(=O)C2n2cccn2)c(C(C)(C)CC)c1 (stereo not drawn) [Example 12] |
| -3.0 |  | CCCCCCCCCCCC(=O)Nc1ccc(Oc2ccc(C(C)(C)CC)cc2C(C)(C)CC)c(C(=O)NC2=NN(c3c(Cl)cc(Cl)cc3Cl)C(=O)C2n2cccn2)c1 (stereo not drawn) [Example 13] |
| -3.0 |  | CCCCCCCCCCC(Oc1ccc(S(=O)(=O)c2ccc(OCc3ccccc3)cc2)cc1)C(=O)Nc1ccc(Oc2ccc(C(C)(C)CC)cc2C(C)(C)CC)c(C(=O)NC2=NN(c3c(Cl)cc(Cl)cc3Cl)C(=O)C2n2cccn2)c1 (stereo not drawn) [Example 14] |
| -3.0 |  | CCC(C)(C)c1ccc(OCC(=O)Nc2ccc(Oc3ccc(C(C)(C)CC)cc3C(C)(C)CC)c(C(=O)NC3=NN(c4c(Cl)cc(Cl)cc4Cl)C(=O)C3n3cccn3)c2)c(C(C)(C)CC)c1 (stereo not drawn) [Example 15] |
| -2.6 | 6.5 | CCCCCCCCCCCCC(Oc1ccc(C)cc1C(C)(C)CC(C)(C)C)C(=O)NC1=NN(c2c(Cl)cc(Cl)cc2Cl)C(=O)C1n1cccn1 (stereo not drawn) [Example 16] |
| -2.6 | 6.5 | CCCCCCCCCCCCC(Oc1ccc(C(C)(C)CC(C)(C)C)cc1)C(=O)NC1=NN(c2c(Cl)cc(Cl)cc2Cl)C(=O)C1n1cccn1 (stereo not drawn) [Example 17] |
